According to publication PMC10794144, “A novel antibiotic class targeting the lipopolysaccharide transporter” (Nature, 2024):
Where two headings read alike, the source gives them in different places.

Columns and labels:
[1] = system: A. baumannii MDR isolates; experiment: Single-step spontaneous mutation frequency; assay type: cell-based, Acinetobacter baumannii
Description: Molten Mueller–Hinton agar (19 ml) supplemented with 20% human serum was added to 1 ml of compound at 20× the final concentration, poured immediately into Petri dishes (100 mm diameter) and gently mixed. Then, 2–3 colonies from agar plates were inoculated into CAMHB and incubated overnight under shaking (150 rpm). […] The agar plates were incubated aerobically at 35 ± 2 °C.

[2] = Human plasma precipitation assay; parameters: key: 0: none; 1: mild; 2: moderate; 3: marked; details: observed only at 2 mg/mL (0.125–2 mg/mL tested)
Description: For the plasma precipitation assay, test item formulations of compounds were diluted as follows with the vehicle (0.9% aqueous sodium chloride solution): undiluted, 1:2, 1:4, 1:8 and 1:16. These serial dilutions were then added into test tubes containing 0.5 ml of plasma to give a final assay volume of 1 ml with a final concentration of 4 mg ml^−1 assay volume or less. After centrifugation of the samples (1,811g; 10 min; at room temperature), plasma precipitation was visually determined by scoring the resulting pellet (score: 0, none; 1, mild; 2, moderate; 3, marked).

[3] = Distribution coefficient logD7.4; assay type: physicochemical; details: pH 7.4

For `CN1C(=O)[C@H](CCCCN)NC(=O)[C@H](CCCN)NCc2cccnc2Sc2cccc(-c3ccc(C(=O)O)cc3)c2CNC(=O)[C@@H]1Cc1c[nH]c2ccccc12` [zosurabalpin], the PROPORTION_R ([1]; A. baumannii ACC00445, inoculum 3.30E+08, selection 2xMIC, 0.5 ug/ml) was 1.70E-07, the PROPORTION_R ([1]; A. baumannii ACC00445, inoculum 3.30E+08, selection 4xMIC, 1 ug/ml) was 6.50E-08 and the PROPORTION_R ([1]; A. baumannii ACC00445, inoculum 3.30E+08, selection 8xMIC, 2 ug/ml) was 3.10E-09. It also gave a PROPORTION_R ([1]; A. baumannii ACC00445, inoculum 3.30E+08, selection 16xMIC, 4 ug/ml) of under 3.1E-09, a PROPORTION_R ([1]; A. baumannii ACC00535, inoculum 3.50E+08, selection 4xMIC, 0.5 ug/ml) of 1.50E-07 and a PROPORTION_R ([1]; A. baumannii ACC00535, inoculum 3.50E+08, selection 8xMIC, 1 ug/ml) of 8.90E-08. For the same compound, the PROPORTION_R ([1]; A. baumannii ACC00535, inoculum 3.50E+08, selection 16xMIC, 2 ug/ml) was under 2.9E-09, the PROPORTION_R ([1]; A. baumannii ACC01073, inoculum 2.80E+08, selection 2xMIC, 2 ug/ml) was 1.10E-08 and the PROPORTION_R ([1]; A. baumannii ACC01073, inoculum 2.80E+08, selection 4xMIC, 4 ug/ml) was 7.30E-09. For the same compound, the PROPORTION_R ([1]; A. baumannii ACC01073, inoculum 2.80E+08, selection 8xMIC, 8 ug/ml) was under 3.6E-09, the PROPORTION_R ([1]; A. baumannii ACC01073, inoculum 2.80E+08, selection 16xMIC, 16 ug/ml) was under 3.6E-09 and the PROPORTION_R ([1]; A. baumannii ACC01077, inoculum 2.80E+08, selection 2xMIC, 0.5 ug/ml) was 3.60E-09. It also gave a PROPORTION_R ([1]; A. baumannii ACC01077, inoculum 2.80E+08, selection 4xMIC, 1 ug/ml) of under 3.6E-09, a PROPORTION_R ([1]; A. baumannii ACC01077, inoculum 2.80E+08, selection 8xMIC, 2 ug/ml) of under 3.6E-09 and a PROPORTION_R ([1]; A. baumannii ACC01077, inoculum 2.80E+08, selection 16xMIC, 4 ug/ml) of under 3.6E-09. The PROPORTION_R ([1]; A. baumannii ACC01085_CDC AR307, inoculum 5.50E+08, selection 2xMIC, 0.5 ug/ml) was 1.10E-06, the PROPORTION_R ([1]; A. baumannii ACC01085_CDC AR307, inoculum 5.50E+08, selection 4xMIC, 1 ug/ml) was under 1.8E-09 and the PROPORTION_R ([1]; A. baumannii ATCC BAA-747, inoculum 7.50E+07, selection 8xMIC, 0.5 ug/ml) was under 1.3E-08. It also gave a PROPORTION_R ([1]; A. baumannii ATCC BAA-747, inoculum 7.50E+07, selection 16xMIC, 1 ug/ml) of under 1.3E-08, a PROPORTION_R ([1]; A. baumannii ROB08706, inoculum 5.00E+07, selection 2xMIC, 2 ug/ml) of 4.00E-08 and a PROPORTION_R ([1]; A. baumannii ROB08706, inoculum 5.00E+07, selection 4xMIC, 4 ug/ml) of 6.00E-08. It also gave a PROPORTION_R ([1]; A. baumannii ROB08706, inoculum 5.00E+07, selection 8xMIC, 8 ug/ml) of under 2.0E-08, a PROPORTION_R ([1]; A. baumannii ROB08706, inoculum 5.00E+07, selection 16xMIC, 16 ug/ml) of under 2.0E-08 and a PROPORTION_R ([1]; A. baumannii ROB08708, inoculum 2.40E+08, selection 4xMIC, 0.5 ug/ml) of 1.10E-07. The PROPORTION_R ([1]; A. baumannii ROB08708, inoculum 2.40E+08, selection 8xMIC, 1 ug/ml) was under 4.2E-09, the PROPORTION_R ([1]; A. baumannii ROB08708, inoculum 2.40E+08, selection 16xMIC, 2 ug/ml) was under 4.2E-09 and the “Single-step spontaneous mutation frequency” value ([1]; ACC00445, 2× MIC) was 2 × 10^−7. The “Single-step spontaneous mutation frequency” value ([1]; ACC00445, 4× MIC) was 7 × 10^−8, the “Single-step spontaneous mutation frequency” value ([1]; ACC00445, 8× MIC) was 3 × 10^−9 and the “Single-step spontaneous mutation frequency” value ([1]; ACC00445, 16× MIC) was <3 × 10^−9. The “Single-step spontaneous mutation frequency” value ([1]; ACC00535, 2× MIC) was 2 × 10^−7, the “Single-step spontaneous mutation frequency” value ([1]; ACC00535, 4× MIC) was 2 × 10^−7 and the “Single-step spontaneous mutation frequency” value ([1]; ACC00535, 8× MIC) was 9 × 10^−8. The “Single-step spontaneous mutation frequency” value ([1]; ACC00535, 16× MIC) was <3 × 10^−9, the “Single-step spontaneous mutation frequency” value ([1]; ACC01073, 2× MIC) was 1 × 10^−8 and the “Single-step spontaneous mutation frequency” value ([1]; ACC01073, 4× MIC) was 7 × 10^−9. For the same compound, the “Single-step spontaneous mutation frequency” value ([1]; ACC01073, 8× MIC) was <4 × 10^−9, the “Single-step spontaneous mutation frequency” value ([1]; ACC01073, 16× MIC) was <4 × 10^−9 and the “Single-step spontaneous mutation frequency” value ([1]; ACC01077, 2× MIC) was 4 × 10^−9. The “Single-step spontaneous mutation frequency” value ([1]; ACC01077, 4× MIC) was <4 × 10^−9, the “Single-step spontaneous mutation frequency” value ([1]; ACC01077, 8× MIC) was <4 × 10^−9 and the “Single-step spontaneous mutation frequency” value ([1]; ACC01077, 16× MIC) was <4 × 10^−9. For the same compound, the “Single-step spontaneous mutation frequency” value ([1]; ACC01085/AR0307, 2× MIC) was 1 × 10^−6, the “Single-step spontaneous mutation frequency” value ([1]; ACC01085/AR0307, 4× MIC) was <2 × 10^−9 and the “Single-step spontaneous mutation frequency” value ([1]; ATCC BAA-747, 2× MIC) was 2 × 10^−7. For the same compound, the “Single-step spontaneous mutation frequency” value ([1]; ATCC BAA-747, 4× MIC) was <1 × 10^−8, the “Single-step spontaneous mutation frequency” value ([1]; ATCC BAA-747, 8× MIC) was <1 × 10^−8 and the “Single-step spontaneous mutation frequency” value ([1]; ATCC BAA-747, 16× MIC) was <1 × 10^−8. For the same compound, the “Single-step spontaneous mutation frequency” value ([1]; ROB08706, 2× MIC) was 4 × 10^−8, the “Single-step spontaneous mutation frequency” value ([1]; ROB08706, 4× MIC) was 6 × 10^−8 and the “Single-step spontaneous mutation frequency” value ([1]; ROB08706, 8× MIC) was <2 × 10^−8. For the same compound, the “Single-step spontaneous mutation frequency” value ([1]; ROB08706, 16× MIC) was <2 × 10^−8, the “Single-step spontaneous mutation frequency” value ([1]; ROB08708, 2× MIC) was 2 × 10^−7 and the “Single-step spontaneous mutation frequency” value ([1]; ROB08708, 4× MIC) was 1 × 10^−7. For the same compound, the “Single-step spontaneous mutation frequency” value ([1]; ROB08708, 8× MIC) was <4 × 10^−9, the “Single-step spontaneous mutation frequency” value ([1]; ROB08708, 16× MIC) was <4 × 10^−9 and the Precipitation score [2] was “Observed only at 2 mg/mL^6 (1)”. For the same compound, the logD7.4 [3] was “–2.46”, the MIC_WT (A. baumannii; A. baumannii ATCC 17978, wild type (parental strain)) was 0.06 µM and the MIC_WT (A. baumannii; A. baumannii ATCC 19606, wild type (parental strain)) was 0.25 µM. For the same compound, the MIC_WT (A. baumannii; A. baumannii ROB08705, wild type (parental strain)) was 0.13 µM, the MIC_WT (A. baumannii; A. baumannii ROB08706, wild type (parental strain)) was 1.0 µM and the MIC_value (A. baumannii; ATCC 17978 clone 1D1, run AB17978_3280_HS, evolved in HS/MHB) was 128 µM. The MIC_value (A. baumannii; ATCC 17978 clone 1D3, run AB17978_3280_HS, evolved in HS/MHB) was 128 µM, the MIC_value (A. baumannii; ATCC 17978 clone 1E3, run AB17978_3280_MHB, evolved in MHB) was 16 µM and the MIC_value (A. baumannii; ATCC 17978 clone 1F1, run AB17978_3280_MHB, evolved in MHB) was over 128 µM. It also gave an MIC_value (A. baumannii; ATCC 17978 clone 2C1, run AB17978_3280_HS, evolved in HS/MHB) of 16 µM, an MIC_value (A. baumannii; ATCC 17978 clone 2C1, run AB17978_3280_MHB, evolved in MHB) of 2 µM and an MIC_value (A. baumannii; ATCC 17978 clone 2C2, run AB17978_3280_HS, evolved in HS/MHB) of 8 µM. For the same compound, the MIC_value (A. baumannii; ATCC 17978 clone 2C3, run AB17978_3280_HS, evolved in HS/MHB) was 4 µM, the MIC_value (A. baumannii; ATCC 17978 clone 2C4, run AB17978_3280_MHB, evolved in MHB) was 8 µM and the MIC_value (A. baumannii; ATCC 17978 clone 2D2, run AB17978_3280_MHB, evolved in MHB) was 8 µM.
